Test results as given in US12187709B2 (Genentech, Inc., priority 2021, dated 2025).

Tests used:
Cbl-b = Cbl-b (Homo sapiens (Human), UniProt Q13191); assay: Cbl-b LCK Ub TR-FRET assay (Cbl-b Lck HTRF); type: biochemical; conditions: for IC50: Cbl-b LCK Ub TR-FRET; for fold-selectivity (Cbl-b over C-cbl): ratio C-cbl Lck HTRF IC50 / Cbl-b Lck HTRF IC50
Procedure, shortened: (§1)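 Signal is read once the detection mix has stood 20 min at ambient temperature. Curves are anchored by DMSO as maximum and by omission of LCK as minimum.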

c-Cbl (residues 47-435) = c-Cbl (residues 47-435) (Homo sapiens (Human), UniProt P22681); assay: c-Cbl SPR assay; type: binding; conditions: 20° C.
Chain of c-Cbl (residues 47-435) (P22681 47-435): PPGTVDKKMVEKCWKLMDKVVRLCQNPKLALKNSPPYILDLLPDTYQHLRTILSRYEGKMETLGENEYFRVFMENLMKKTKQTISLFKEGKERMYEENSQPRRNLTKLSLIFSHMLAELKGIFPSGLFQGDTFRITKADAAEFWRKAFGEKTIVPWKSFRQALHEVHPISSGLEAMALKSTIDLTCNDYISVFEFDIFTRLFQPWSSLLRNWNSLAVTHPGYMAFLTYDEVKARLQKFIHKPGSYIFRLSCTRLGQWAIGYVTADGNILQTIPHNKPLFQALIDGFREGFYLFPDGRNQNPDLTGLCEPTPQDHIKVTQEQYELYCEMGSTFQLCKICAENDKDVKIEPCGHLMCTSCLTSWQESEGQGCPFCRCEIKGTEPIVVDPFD
Description: (§2) Affinity of binding to Cbl-b and c-Cbl for compounds described herein was assessed by surface plasmon resonance (SPR) according to the following protocol.
(§3) A surface capture range of 1300-1500 RU of protein was used for both isoforms.
(§4) For SPR measurements, 6 concentrations with 2 fold serial dilution were measured with blanks flanking each series for double referencing. […] SPR sensorgrams were recorded in multi-cycle kinetics format, with a contact time of 60 seconds and a flow rate of 40 μl/min, the dissociation time was varied between 120-1200 seconds aiming for 4-5 half-lives of the measured interaction.
(§5) Kinetic and affinity parameters were extracted from the multicycle kinetics data fitting to a 1:1 binding model using the Biacore™ Incyte evaluation software (Cytiva).
(§6) Chaser assay utilize a single cycle kinetics SPR experiment with a contact time of 120 seconds, a flow rate of 50 μl/min and a dissociation time of 450 seconds. Single cycle kinetics titration utilized an initial blank injection and 5 concentrations with 2 fold serial dilution with a maximum concentration of 500 nM, blanked to a preceding 6 point blank single cycle kinetics injection for double referencing.
(§7) The kd is measured independently by determining the percentage unoccupied compound binding site over time by measuring the binding of a chaser compound measured by SPR.
(§8) Chaser binding was measured by a multicycle kinetics SPR experiment using a contact time of 20 seconds, a flow rate of 30 μl/min, and a dissociation time of 120 seconds. […] The % compound bound at a given time was determined by comparison to a single injection of chaser preceding the single cycle kinetics titration defined below. % Compound Bound=(1−(RUT/RUT0))*100
(§9) The % compound bound is plotted against time in seconds and fit to a single exponential, where the exponent represents the kd of the compound-protein complex. The single cycle kinetics experiment of the compound is then fit with a fixed kd determined using the chaser.

c-Cbl = c-Cbl (Homo sapiens (Human), UniProt P22681); assay: C-Cbl LCK Ub TR-FRET assay (C-cbl Lck HTRF); type: biochemical
Chain of c-Cbl (P22681 47-435): as above
Procedure, shortened: as §1

[1] = molecular target: Human Cbl-b (residues 40-426) (Homo sapiens (Human), UniProt Q13191); assay: Cbl-b SPR assay; type: binding; conditions: for Fold of selectivity: C-cbl SPR Kd vs Cbl-b SPR Kd; for Kd: SPR, 20° C.
Chain of Human Cbl-b (residues 40-426) (Q13191 40-426): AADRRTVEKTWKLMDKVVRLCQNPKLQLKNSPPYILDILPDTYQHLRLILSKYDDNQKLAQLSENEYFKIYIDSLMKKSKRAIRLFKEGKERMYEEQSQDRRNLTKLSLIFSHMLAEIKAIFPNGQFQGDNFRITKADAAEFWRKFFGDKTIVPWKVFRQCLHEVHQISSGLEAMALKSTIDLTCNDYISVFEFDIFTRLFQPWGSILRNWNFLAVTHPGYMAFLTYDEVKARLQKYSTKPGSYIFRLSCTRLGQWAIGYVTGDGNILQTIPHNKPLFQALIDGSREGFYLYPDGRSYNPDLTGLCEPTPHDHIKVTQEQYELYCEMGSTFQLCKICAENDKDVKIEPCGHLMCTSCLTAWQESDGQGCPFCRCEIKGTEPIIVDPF
Description: as §2, §3, §4, §5, §6, §7, §8, §9

Chain of Cbl-b (Q13191 40-426): as above

| SMILES | IC50 (Cbl-b) [nM] | fold-selectivity (Cbl-b over C-cbl) (Cbl-b) | Kd (c-Cbl (residues 47-435)) [nM] | IC50 (c-Cbl) [nM] | Fold of selectivity [1] [×] | Kd [1] [nM] |
| --- | --- | --- | --- | --- | --- | --- |
| C[C@H]1CCCN(Cc2cc3c(c(C(F)(F)F)c2)CN(c2cccc(C4(c5nncn5C)CC5(COC5)C4)c2)C3=O)C1 (single isomer, unassigned) [Compound 66] | 25 | (2.5x) | 81 | 62.5 | 5.0 | 16 |
| CC(C)[C@H]1CN(C)CCN1Cc1cc2c(c(C(F)(F)F)c1)CN(c1cc([C@]3(c4nncn4C)C[C@H](C)C3)cc(OC3CCCC3)n1)C2=O (single isomer, unassigned) [Compound 73] | 22 | (1.6x) | 3 | 35 | 3.0 | 1 |
| Cn1cnnc1[C@]1(c2cccc(N3Cc4c(cc(CNC5(C)CCC5)cc4C(F)(F)F)C3=O)c2)CCC(F)(F)C1 (single isomer, unassigned) [Compound 107] | 300 | 6.0x | 1700 | 1800 | 6.8 | 250 |
| Cn1cnnc1[C@@H](c1cccc(N2Cc3c(cc(CNC4(C)CCC4)cc3C(F)(F)F)C2=O)c1)C1CC(=O)C1 (single isomer, unassigned) [Compound 114] | 360 | 2.1 x | 610 | 770 | 2.1 | 290 |
| CO[C@](c1cccc(N2Cc3c(cc(CNC4(C)CCC4)cc3C(F)(F)F)C2=O)c1)(c1nncn1C)C1CCC1 (single isomer, unassigned) [Compound 119] | 3600 | 3.6x | 2300 | 13000 | 3.0 | 780 |
| Cn1cnnc1[C@H](c1cccc(N2Cc3c(cc(CNC4(C)CCC4)cc3C(F)(F)F)C2=O)c1)C1CC(F)C1 (single isomer, unassigned) [Compound 127] | 410 | 4.1x | 4800 | 2000 | 13 | 360 |
| Cn1cnnc1[C@H](c1cccc(N2Cc3c(cc(CNC4(C)CCC4)cc3C(F)(F)F)C2=O)c1)C1CC(F)C1 (single isomer, unassigned) [Compound 128] | 240 | 4.9x | 3000 | 1300 | 13 | 230 |

The next molecules have a lower IC50 (Cbl-b) than those just listed; values first:

| IC50 (Cbl-b) [nM] | fold-selectivity (Cbl-b over C-cbl) (Cbl-b) | Kd (c-Cbl (residues 47-435)) [nM] | IC50 (c-Cbl) [nM] | Fold of selectivity [1] [×] | Kd [1] [nM] | SMILES |
| --- | --- | --- | --- | --- | --- | --- |
| 14 | (1.2x) | 34 | 16.8 | 9.1 | 3.7 | CC1=C[C@@](c2cc(NC3CCC3)nc(N3Cc4c(cc(CN5CCN(C)C[C@@H]5C(C)C)cc4C(F)(F)F)C3=O)c2)(c2nncn2C)C1 (single isomer, unassigned) [Compound 71] |
| 17 | (1.3x) | 230 | 22 | 7.7 | 31 | CC(C)[C@H]1CN(C)CCN1Cc1cc2c(c(C(F)(F)F)c1)CN(c1cc([C@]3(c4nncn4C)C[C@H](C)C3)cc(NC3CCCC3)n1)C2=O (single isomer, unassigned) [Compound 75] |
| 10 | 2.3x | 8.9 | 23 | 5.2 | 1.8 | Cn1cnnc1[C@H](c1cccc(N2Cc3c(cc(CNC4(C)CCC4)cc3C(F)(F)F)C2=O)c1)C1CC(=O)C1 (single isomer, unassigned) [Compound 115] |
| 11 | 3.5x | 43 | 39 | 13 | 3.6 | Cn1cnnc1[C@@H](c1cccc(N2Cc3c(cc(CNC4(C)CCC4)cc3C(F)(F)F)C2=O)c1)C1CC(F)C1 (single isomer, unassigned) [Compound 129] |
